The results in this text go back to US10934298B2, “Substituted pyrazolo[1,5-a]pyrimidines for the treatment of medical disorders” (BIAL—BioTech Investments, Inc., priority 2016, dated 2021).

Structures are written as SMILES.

For the test, the target named is T1, glucocerebrosidase (Gcase) (Homo sapiens, UniProt P04062).
T1 construct: micellar solution containing 10 nM GCase and 100 nM saposin C
T1 sequence (P04062 40-536): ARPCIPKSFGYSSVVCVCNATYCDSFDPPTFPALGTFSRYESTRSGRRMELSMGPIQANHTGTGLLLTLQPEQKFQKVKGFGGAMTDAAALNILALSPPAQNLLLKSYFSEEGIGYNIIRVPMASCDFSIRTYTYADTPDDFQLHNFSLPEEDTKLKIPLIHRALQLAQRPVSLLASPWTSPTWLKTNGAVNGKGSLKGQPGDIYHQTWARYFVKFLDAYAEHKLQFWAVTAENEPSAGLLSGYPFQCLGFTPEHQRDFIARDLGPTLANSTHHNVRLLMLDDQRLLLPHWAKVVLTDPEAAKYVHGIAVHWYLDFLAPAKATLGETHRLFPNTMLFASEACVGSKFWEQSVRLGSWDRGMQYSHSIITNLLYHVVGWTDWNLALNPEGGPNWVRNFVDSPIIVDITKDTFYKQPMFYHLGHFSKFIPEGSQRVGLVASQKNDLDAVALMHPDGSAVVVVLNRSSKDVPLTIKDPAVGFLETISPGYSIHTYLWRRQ
The test can be described thus: Glucocerebrosidase (Gcase) activation assay with 4-methylumbelliferyl-beta-D-glucopyranoside substrate, saposin C and phosphatidylserine/triton micelles, fluorescence readout. Format: biochemical. Conditions: for Percent Gcase Activation, 0.1 μM Test Compound: test compound at 0.1 μM; for Percent Gcase Activation, 1 μM Test Compound: test compound at 1.0 μM. In short, it runs like this:
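Fluorescence (ex 365 nm, em 440 nm) read after glycine pH 12.5 stop of a 15 min room-temperature reaction. GCase 10 nM plus saposin C 100 nM in PS/triton micelles, pH 4.7, preincubated 30 min with compound; substrate solution held 2 mM 4-MU-beta-glucoside. Screened at 1.0 and 0.1 μM; 8-point, 3-fold curves from 5 μM top.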

On to `C#CC(NC(=O)c1cnn2c(C)cc(-c3cccc(OC)c3)nc12)C(F)(F)F` (centres unmarked) [III-96], for which the “Percent Gcase Activation, 0.1 μM Test Compound” value is “*** (greater than 20% Gcase activation)” and the “Percent Gcase Activation, 1 μM Test Compound” value was “+++ (Gcase activation greater than 60%)”.
`COc1ccc(F)c(-c2cc(C)n3ncc(C(=O)N[C@H](C)C(F)(F)F)c3n2)c1` [III-97]: the “Percent Gcase Activation, 0.1 μM Test Compound” value was “** (Gcase activation in the range of 10% up to 20%)” and the “Percent Gcase Activation, 1 μM Test Compound” value is recorded as “+++ (Gcase activation greater than 60%)”.
For `COc1ccc(F)c(-c2cc(C)n3ncc(C(=O)N[C@@H](C)C(F)(F)F)c3n2)c1` [III-98], the “Percent Gcase Activation, 0.1 μM Test Compound” value is reported as “*** (greater than 20% Gcase activation)” and the “Percent Gcase Activation, 1 μM Test Compound” value was “+++ (Gcase activation greater than 60%)”.
For `C#CC(NC(=O)c1cnn2c(C)cc(-c3cccc(Cl)c3)nc12)C(F)(F)F` (centres unmarked) [III-99] the same measures were “*** (greater than 20% Gcase activation)” and “++ (Gcase activation in the range of 30% up to 60%)”.
`Cc1cc(-c2ccns2)nc2c(C(=O)N[C@H](C3CC3)C(F)(F)F)cnn12` [III-100]: the “Percent Gcase Activation, 0.1 μM Test Compound” value was “*** (greater than 20% Gcase activation)” and the “Percent Gcase Activation, 1 μM Test Compound” value is on record as “+++ (Gcase activation greater than 60%)”.
On the same counts, the results for `Cc1cc(-c2ccns2)nc2c(C(=O)N[C@@H](C3CC3)C(F)(F)F)cnn12` [III-101] are “*** (greater than 20% Gcase activation)” and “+++ (Gcase activation greater than 60%)”.
For `Cc1cc(-c2cccc(-c3ncc[nH]3)c2)nc2c(C(=O)NC(C3CC3)C(F)(F)F)cnn12` (centres unmarked) [III-102], the “Percent Gcase Activation, 0.1 μM Test Compound” value is on record as “* (less than 10% Gcase activation)” and the “Percent Gcase Activation, 1 μM Test Compound” value is given as “+ (less than 30% Gcase activation)”.
On the same counts, the results for `Cc1cc(-c2cccc(Oc3ncccn3)c2)nc2c(C(=O)NC(C3CC3)C(F)(F)F)cnn12` (centres unmarked) [III-103] are “* (less than 10% Gcase activation)” and “+++ (Gcase activation greater than 60%)”.
On the same counts, the results for `Cc1cc(-c2cccc3ncoc23)nc2c(C(=O)NC(C3CC3)C(F)(F)F)cnn12` (centres unmarked) [III-104] are “*** (greater than 20% Gcase activation)” and “+++ (Gcase activation greater than 60%)”.
For the compound `Cc1cc(-c2cccc3ocnc23)nc2c(C(=O)NC(C3CC3)C(F)(F)F)cnn12` (centres unmarked) [III-106], the “Percent Gcase Activation, 0.1 μM Test Compound” value was “*** (greater than 20% Gcase activation)” and the “Percent Gcase Activation, 1 μM Test Compound” value is reported as “++ (Gcase activation in the range of 30% up to 60%)”.
For `Cc1cc(-n2ccc(Cl)n2)nc2c(C(=O)NC(C3CC3)C(F)(F)F)cnn12` (centres unmarked) [III-107], the “Percent Gcase Activation, 0.1 μM Test Compound” value is given as “*** (greater than 20% Gcase activation)” and the “Percent Gcase Activation, 1 μM Test Compound” value was “+++ (Gcase activation greater than 60%)”.
For `Cc1cc(-c2ccc3ocnc3c2)nc2c(C(=O)NC(C3CC3)C(F)(F)F)cnn12` (centres unmarked) [III-108] the same measures were “*** (greater than 20% Gcase activation)” and “+++ (Gcase activation greater than 60%)”.
For the compound `Cc1cc(-c2ccc3ocnc3c2)nc2c(C(=O)N[C@H](C3CC3)C(F)(F)F)cnn12` [III-109], the “Percent Gcase Activation, 0.1 μM Test Compound” value is “*** (greater than 20% Gcase activation)” and the “Percent Gcase Activation, 1 μM Test Compound” value is on record as “+++ (Gcase activation greater than 60%)”.
On the same counts, the results for `Cc1cc(-c2ccc3ocnc3c2)nc2c(C(=O)N[C@@H](C3CC3)C(F)(F)F)cnn12` [III-110] are “*** (greater than 20% Gcase activation)” and “+++ (Gcase activation greater than 60%)”.
For `Cc1cc(-c2cccc(F)c2)nc2c(C(=O)NC(C3CC3)C(F)(F)F)cnn12` (centres unmarked) [III-111] the same measures were “*** (greater than 20% Gcase activation)” and “+++ (Gcase activation greater than 60%)”.
As to `Cc1cc(-c2ccc(F)nc2)nc2c(C(=O)NC(C3CC3)C(F)(F)F)cnn12` (centres unmarked) [III-112], the “Percent Gcase Activation, 0.1 μM Test Compound” value is “*** (greater than 20% Gcase activation)” and the “Percent Gcase Activation, 1 μM Test Compound” value is on record as “+++ (Gcase activation greater than 60%)”.
On the same counts, the results for `Cc1cc(-c2cccnc2F)nc2c(C(=O)NC(C3CC3)C(F)(F)F)cnn12` (centres unmarked) [III-113] are “*** (greater than 20% Gcase activation)” and “+++ (Gcase activation greater than 60%)”.
As to `Cc1cc(-c2cccnc2F)nc2c(C(=O)N[C@H](C3CC3)C(F)(F)F)cnn12` [III-114], the “Percent Gcase Activation, 0.1 μM Test Compound” value is reported as “*** (greater than 20% Gcase activation)” and the “Percent Gcase Activation, 1 μM Test Compound” value is given as “+++ (Gcase activation greater than 60%)”.
With `Cc1cc(-c2cccnc2F)nc2c(C(=O)N[C@@H](C3CC3)C(F)(F)F)cnn12` [III-115], the “Percent Gcase Activation, 0.1 μM Test Compound” value is “*** (greater than 20% Gcase activation)” and the “Percent Gcase Activation, 1 μM Test Compound” value is given as “+++ (Gcase activation greater than 60%)”.
On the same counts, the results for `Cc1cc(-c2ccc(Cl)nc2)nc2c(C(=O)NC(C3CC3)C(F)(F)F)cnn12` (centres unmarked) [III-116] are “*** (greater than 20% Gcase activation)” and “+++ (Gcase activation greater than 60%)”.
On the same counts, the results for `Cc1cc(-c2ccc(Cl)nc2)nc2c(C(=O)N[C@H](C3CC3)C(F)(F)F)cnn12` [III-117] are “*** (greater than 20% Gcase activation)” and “+++ (Gcase activation greater than 60%)”.
In the case of `Cc1cc(-c2cncc(Cl)c2)nc2c(C(=O)NC(C3CC3)C(F)(F)F)cnn12` (centres unmarked) [III-119], the “Percent Gcase Activation, 0.1 μM Test Compound” value was “*** (greater than 20% Gcase activation)” and the “Percent Gcase Activation, 1 μM Test Compound” value was “+++ (Gcase activation greater than 60%)”.
On the same counts, the results for `Cc1cc(-c2cncc(Cl)c2)nc2c(C(=O)N[C@H](C3CC3)C(F)(F)F)cnn12` [III-120] are “*** (greater than 20% Gcase activation)” and “+++ (Gcase activation greater than 60%)”.
For `Cc1cc(-c2cncc(Cl)c2)nc2c(C(=O)N[C@@H](C3CC3)C(F)(F)F)cnn12` [III-121] the same measures were “*** (greater than 20% Gcase activation)” and “+++ (Gcase activation greater than 60%)”.
On the same counts, the results for `Cc1cc(-c2cnccc2Cl)nc2c(C(=O)NC(C3CC3)C(F)(F)F)cnn12` (centres unmarked) [III-122] are “*** (greater than 20% Gcase activation)” and “+++ (Gcase activation greater than 60%)”.
On to `Cc1cc(-c2cccnc2Cl)nc2c(C(=O)NC(C3CC3)C(F)(F)F)cnn12` (centres unmarked) [III-123], for which the “Percent Gcase Activation, 0.1 μM Test Compound” value was “** (Gcase activation in the range of 10% up to 20%)” and the “Percent Gcase Activation, 1 μM Test Compound” value is recorded as “+++ (Gcase activation greater than 60%)”.
As to `Cc1cc(-c2cnccc2F)nc2c(C(=O)NC(C3CC3)C(F)(F)F)cnn12` (centres unmarked) [III-124], the “Percent Gcase Activation, 0.1 μM Test Compound” value is “*** (greater than 20% Gcase activation)” and the “Percent Gcase Activation, 1 μM Test Compound” value is listed as “+++ (Gcase activation greater than 60%)”.
On to `Cc1cc(-c2cncc(F)c2)nc2c(C(=O)NC(C3CC3)C(F)(F)F)cnn12` (centres unmarked) [III-125], for which the “Percent Gcase Activation, 0.1 μM Test Compound” value is reported as “*** (greater than 20% Gcase activation)” and the “Percent Gcase Activation, 1 μM Test Compound” value is “+++ (Gcase activation greater than 60%)”.
On the same counts, the results for `Cc1cc(-c2cncc(F)c2)nc2c(C(=O)N[C@H](C3CC3)C(F)(F)F)cnn12` [III-126] are “*** (greater than 20% Gcase activation)” and “+++ (Gcase activation greater than 60%)”.
For `Cc1cc(-c2cncc(F)c2)nc2c(C(=O)N[C@@H](C3CC3)C(F)(F)F)cnn12` [III-127] the same measures were “*** (greater than 20% Gcase activation)” and “+++ (Gcase activation greater than 60%)”.
In the case of `Cc1cc(-c2cc(F)cc(C#N)c2)nc2c(C(=O)N[C@@H](C)C3CC3)cnn12` [III-128], the “Percent Gcase Activation, 0.1 μM Test Compound” value is “*** (greater than 20% Gcase activation)” and the “Percent Gcase Activation, 1 μM Test Compound” value is on record as “+++ (Gcase activation greater than 60%)”.
For `COc1cc(C#N)cc(-c2cc(C)n3ncc(C(=O)N[C@@H](C)C4CC4)c3n2)c1` [III-129], the “Percent Gcase Activation, 0.1 μM Test Compound” value is on record as “*** (greater than 20% Gcase activation)” and the “Percent Gcase Activation, 1 μM Test Compound” value is recorded as “+++ (Gcase activation greater than 60%)”.
On the same counts, the results for `Cc1cc(-c2cccc(Cl)n2)nc2c(C(=O)N[C@@H](C)C3CC3)cnn12` [III-131] are “*** (greater than 20% Gcase activation)” and “+++ (Gcase activation greater than 60%)”.
Regarding `Cc1cc(-c2cccc(Cl)n2)nc2c(C(=O)N[C@H](C)C3CC3)cnn12` [III-132], the “Percent Gcase Activation, 0.1 μM Test Compound” value is recorded as “** (Gcase activation in the range of 10% up to 20%)” and the “Percent Gcase Activation, 1 μM Test Compound” value was “+++ (Gcase activation greater than 60%)”.
